Values quoted from earlier work in patent EP0475894A1, “Gemfibrozil formulations” (WARNER-LAMBERT COMPANY, priority 1990, dated 1992).

Conditions: particularly in a highly acidic medium

solubility in water: very poor solubility in water
Structure (SMILES): Cc1ccc(C)c(OCCCC(C)(C)C(=O)O)c1 [Gemfibrozil, 5-(2,5-dimethylphenoxy)-2,2-dimethylpentanoic acid]
